The test system of one assay is CDP-Hep3B cells. Nature of the assay: MTT cell viability assay with sorafenib, CDP-Hep3B cells. The assay is classed as cell-based. To be noted: Homo sapiens, 12000 cells/well, 48 hours, n=3 independent experiments, read-out: calculated IC50 (cell viability). How it is done:
(§1) Human Hep3B hepatocellular carcinoma cells (from ATCC at www.atcc.org/products/all/HB-8064.aspx) were grown in Eagle's minimum essential media (EMEM) supplemented with 10% heat-inactivated FBS, PenStrep (100 units/mL//[…]) and 2mM L-Glutamine.
(§2) Hep3B cells were transduced with either empty lentivirus (MOI=5) or lentivirus harboring CDP (MOI=5). Transduced cells were selected by growth in puromycin (4 μg/mL) to establish stable cell lines of Mock-Hep3B (empty lentivirus) and CDP-Hep3B (lentivirus containing CDP). FIG. 1 is a representative western blot showing the expression of Flag-tagged CDP in CDP-Hep3B cells (“CDP”) and not in Mock-Hep3B cells (“Mock”). […]
(§3) The growth and viability of Mock- and CDP-Hep3B cells were assessed by cell proliferation assay, using the tetrazolium salt 3-[4,5-di-methylthiazol-2yl]-2,5-diphenyl-tetrazolium bromide (MTT) reagent (resources.rndsystems.com/pdfs/datasheets/4890-025-k.pdf). […] Detergent reagent was then added to each well to solubilize the formazan dye prior to measuring the absorbance of each sample in a microplate reader at 570 nm.
(§4) Growth rates of stable cell lines were also obtained in the presence of Sorafenib. […] Cell viability was assessed using the MTT assay after 48 hours as described above.

The subject of the next assay is Mock-Hep3B cells. Nature of the assay: MTT cell viability assay with sorafenib, Mock-Hep3B cells. To be noted: Homo sapiens, 12000 cells/well, 48 hours, n=3 independent experiments, read-out: calculated IC50 (cell viability). The assay is classed as cell-based. How it is done:
as §1, §2, §3, §4

For the compound `CNC(=O)c1cc(Oc2ccc(NC(=O)Nc3ccc(Cl)c(C(F)(F)F)c3)cc2)ccn1` [sorafenib, Sorafenib], the half-maximal inhibitory concentration (IC50) with CDP-Hep3B cells was 4.64 ± 0.16 µM; in the assay with Mock-Hep3B cells it was 4.76 ± 0.62 µM.

The values are drawn from US20240075108A1, “HEPATOCELLULAR CARCINOMA TREATMENTS, PROPHYLACTIC THERAPIES, AND COMPOSITIONS FOR USE THEREWITH” (REPAIR BIOTECHNOLOGIES, INC., priority 2020, published 2024).
